In patent US11583525B2, “Geranylgeranyltransferase I inhibitor for treatment of a PTEN defective cancer” (H. LEE MOFFITT CANCER CENTER AND RESEARCH INSTITUTE, INC., priority 2017, dated 2023):
“Also recorded” adds a separate entry of the source. Peptide text beside a SMILES is read from it. * marks the point of attachment. Cbz = O=C(OCc1ccccc1)*

Columns and labels:
A549 cells = test: A549 cell xenografts in NOD/SCID gamma mice, GGTi-2418 alone or in combination with PDT; format: in vivo; details: 50 mg kg-1 intratumoural injection
Source text: FIGS. 4A, 4B, 4C, and 4D show both a non-degradable IP3R3 mutant and GGTi-2418 sensitize tumours to PDT. […] Implanted xenotransplanted mice, chosen randomly, were subjected to two rounds of PDT (see arrows) or left untreated (UT); n=4-6 mice per group. Left panel, tumour growth kinetics at the indicated time points. Middle panel, representative tumours imaged with IRDye 2-DG at the end of the experiment. Top right panel, representative excised tumours imaged 60 days post-injection. Bottom right panel, quantification of tumour weights. P values for the tumour volume and weight at day 60 were calculated by one-way ANOVA and multiple-comparisons test. Error bars indicate s.e.m. […] Middle panel, quantification of apoptosis. […] AFU, arbitrary fluorescence units. P values were calculated by one-way ANOVA and multiple-comparisons test. […] Bottom right panel, quantification of tumour weights. P values for the tumour volume and weight at day 60 were calculated by one-way ANOVA and multiple-comparisons test. […] Middle panel, quantification of apoptosis. […] P values were calculated by one-way ANOVA and multiple-comparisons test. […]
Experimental animals. […] Tumour growth was monitored daily, and tumour diameters were measured with callipers every other day. The tumour volume was calculated using the following equation: volume=π/6 ×(a×b2), where a is the major diameter and b is the minor diameter. […]

IP3R3 = test: Serum-mediated degradation of IP3R3 in serum-starved, serum re-stimulated NHFs (immunoblotting); format: cell-based, human; details: NHFs serum-starved 72 h, re-stimulated with serum; 10 μM MG132, 10 μM Eer1
Experimental: 24 h post-transfection, cells were treated with MG132 for 3 h before harvesting for immunoprecipitation and immunoblotting as indicated. WCL, whole-cell lysate from untransfected cells. […] After harvesting, cells were lysed, and cell membranes (CM) were isolated and immunoprecipitated with either a normal mouse IgG or an anti-Flag antibody. Subsequently, immunoprecipitates were analysed by immunoblotting as indicated. The results of these experiments (n=2) indicate that FBXL2 is incorporated into a complete SCF ligase that binds its substrate(s) at cellular membranes. […] After harvesting, cells were lysed and cytoplasmic (CYTO) and cell membrane (CM) fractions were isolated and analysed by immunoblotting as indicated. Actin and calnexin are used as markers for cytoplasmic and cell membrane fractions, respectively. This experiment was performed twice. […] 24 h post-transfection, where indicated, cells were treated with MG132 for 3 h before harvesting for immunoprecipitation and immunoblotting. Ned. CUL1, neddylated CUL1. […] The experiment was performed in the presence or absence of MG132 as indicated. Whole-cell lysates were immunoblotted as indicated. The asterisk indicates a non-specific band. This experiment was performed twice. […] P values were calculated by unpaired t-test. Error bars indicate s.e.m. […] Error bars indicate s.e.m. The values represent the ratios between FBXL2 and GAPDH mRNAs. […] Cells were subsequently stimulated with medium containing serum and harvested at the indicated times for immunoblotting. […] Error bars indicate s.e.m. […] Cells were subsequently stimulated with medium containing serum and harvested at the indicated time points for immunoblotting. […] Error bars indicate s.e.m. […] Exon 2 and exon 3 refer to the human FBXL2 gene in NC_000003.12 (GRCh38.p7 (Gene Bank ID: 3129728)). […]
FIGS. 6A, 6B, 6C, 6D, 6E, 6F, 6G, and 6H that the degradation of IP3R3 is dependent on FBXL2 localization to cell membranes and on the segregase activity of p97. […] Samples were analysed by immunoblotting with the indicated antibodies. […]

SMILES | growth rate of xenografts (A549 cells; GGTi-2418 by itself, two rounds of five consecutive days) | sensitization of tumour xenografts to PDT (tumour growth, weight, apoptosis) (A549 cells; GGTi-2418 in combination with PDT) | IP3R3 levels / degradation after serum re-stimulation (IP3R3)
Cc1nc[nH]c1CN1CCN(C(=O)N[C@@H](CC(C)C)C(=O)O)[C@@H](Cc2ccccc2)C1=O [GGTi-2418] | only modestly affected the growth rate of xenografts | sensitizes xenotransplanted tumours to photodynamic therapy; also recorded: significantly sensitized tumour xenografts to PDT | 
CC(C)C[C@@H](C=O)NC(=O)[C@H](CC(C)C)NC(=O)[C@H](CC(C)C)NC(=O)OCc1ccccc1 [MG132] (Cbz-Leu-Leu-Leu-aldehyde) |  |  | much less
